Experimental data reported in ChEMBL document CHEMBL1130674, “N-arylrolipram derivatives as potent and selective PDE4 inhibitors” (1998).

Key:
[1] = molecular target: Phosphodiesterase 3 (Homo sapiens) (UniProt Q14432+Q13370); experiment: Inhibition of phosphodiesterase (PDE) 3; assay type: protein assay
[2] = molecular target: 3',5'-cyclic-AMP phosphodiesterase 4D (Homo sapiens) (UniProt Q08499); experiment: Inhibition of phosphodiesterase (PDE) 4D
[3] = molecular target: T1, 3',5'-cyclic-AMP phosphodiesterase 4B (Rattus norvegicus) (UniProt P14646); experiment: Inhibition of phosphodiesterase (PDE) 4B
T1 sequence (whole entry): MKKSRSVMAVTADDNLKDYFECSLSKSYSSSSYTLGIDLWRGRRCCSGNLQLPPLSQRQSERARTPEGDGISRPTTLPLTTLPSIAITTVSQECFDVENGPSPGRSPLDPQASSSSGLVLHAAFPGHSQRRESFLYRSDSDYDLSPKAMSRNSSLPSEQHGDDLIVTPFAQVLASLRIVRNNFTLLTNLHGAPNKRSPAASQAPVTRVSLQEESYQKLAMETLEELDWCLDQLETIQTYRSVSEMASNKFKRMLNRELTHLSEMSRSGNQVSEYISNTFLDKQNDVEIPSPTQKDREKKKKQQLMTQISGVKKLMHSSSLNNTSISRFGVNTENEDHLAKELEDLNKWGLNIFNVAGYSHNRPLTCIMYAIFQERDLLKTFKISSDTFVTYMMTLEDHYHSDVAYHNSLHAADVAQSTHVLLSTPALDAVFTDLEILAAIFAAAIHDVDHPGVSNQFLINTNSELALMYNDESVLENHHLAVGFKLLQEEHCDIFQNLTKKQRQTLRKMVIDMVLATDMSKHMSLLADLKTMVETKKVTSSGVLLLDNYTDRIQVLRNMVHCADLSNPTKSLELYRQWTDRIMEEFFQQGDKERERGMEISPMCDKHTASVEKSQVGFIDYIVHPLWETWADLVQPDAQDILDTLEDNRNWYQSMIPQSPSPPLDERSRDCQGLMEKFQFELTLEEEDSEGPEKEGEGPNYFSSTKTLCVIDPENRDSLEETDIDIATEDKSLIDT

[4] = molecular target: 3',5'-cyclic-AMP phosphodiesterase 4A (Homo sapiens) (UniProt P27815)
Description: Inhibition of phosphodiesterase (PDE) 4A

[5] = Inhibition of rolipram binding
Homo sapiens = species on record: Homo sapiens; experiment: Inhibition of fMLP induced oxidative burst in human eosinophils.; assay type: functional
PBMC [6] = experiment: Inhibition of anti-CD3 induced IL-4 release by human peripheral blood mononuclear cells.; assay type: functional
PBMC [7] = experiment: Inhibition of LPS induced TNF-alpha release by human peripheral blood mononuclear cells.; assay type: functional
PBMC [8] = experiment: Inhibition of anti-CD3 induced IFN-gamma-release in human peripheral blood mononuclear cells.; assay type: functional
Rattus norvegicus [9] = experiment: Eosinophil accumulation in sensitized brown norway rats at 1 mg/kg dose (No of rats = 5); assay type: functional
PBMC [10] = experiment: Inhibition of anti-CD3 induced T-cell proliferation in human peripheral blood mononuclear cells.; assay type: functional
Rattus norvegicus [11] = experiment: Eosinophil accumulation in sensitized brown norway rats at 3.2 mg/kg dose (No of rats = 5); assay type: functional

Sequence of 3',5'-cyclic-AMP phosphodiesterase 4D (Homo sapiens) (Q08499 whole entry): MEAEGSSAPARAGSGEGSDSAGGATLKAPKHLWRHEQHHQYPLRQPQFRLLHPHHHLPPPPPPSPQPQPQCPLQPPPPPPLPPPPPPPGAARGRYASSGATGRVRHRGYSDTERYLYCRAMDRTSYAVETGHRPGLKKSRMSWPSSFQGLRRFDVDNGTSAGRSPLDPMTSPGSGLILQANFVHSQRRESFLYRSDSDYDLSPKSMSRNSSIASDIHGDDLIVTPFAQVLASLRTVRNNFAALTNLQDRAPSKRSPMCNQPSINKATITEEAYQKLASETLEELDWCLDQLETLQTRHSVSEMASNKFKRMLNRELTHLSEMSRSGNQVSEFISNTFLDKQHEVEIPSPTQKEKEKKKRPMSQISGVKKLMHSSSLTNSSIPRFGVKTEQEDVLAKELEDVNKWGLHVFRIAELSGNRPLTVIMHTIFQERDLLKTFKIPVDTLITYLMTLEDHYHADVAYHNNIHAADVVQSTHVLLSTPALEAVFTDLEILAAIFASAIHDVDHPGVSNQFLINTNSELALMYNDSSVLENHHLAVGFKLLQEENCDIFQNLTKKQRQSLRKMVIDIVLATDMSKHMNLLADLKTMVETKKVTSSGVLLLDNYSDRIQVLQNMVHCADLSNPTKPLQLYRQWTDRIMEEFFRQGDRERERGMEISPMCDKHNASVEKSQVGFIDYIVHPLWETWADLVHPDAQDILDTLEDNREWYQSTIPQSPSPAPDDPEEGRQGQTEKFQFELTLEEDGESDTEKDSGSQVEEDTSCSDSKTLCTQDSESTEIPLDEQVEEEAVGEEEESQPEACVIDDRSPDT
Sequence of 3',5'-cyclic-AMP phosphodiesterase 4A (Homo sapiens) (P27815 whole entry): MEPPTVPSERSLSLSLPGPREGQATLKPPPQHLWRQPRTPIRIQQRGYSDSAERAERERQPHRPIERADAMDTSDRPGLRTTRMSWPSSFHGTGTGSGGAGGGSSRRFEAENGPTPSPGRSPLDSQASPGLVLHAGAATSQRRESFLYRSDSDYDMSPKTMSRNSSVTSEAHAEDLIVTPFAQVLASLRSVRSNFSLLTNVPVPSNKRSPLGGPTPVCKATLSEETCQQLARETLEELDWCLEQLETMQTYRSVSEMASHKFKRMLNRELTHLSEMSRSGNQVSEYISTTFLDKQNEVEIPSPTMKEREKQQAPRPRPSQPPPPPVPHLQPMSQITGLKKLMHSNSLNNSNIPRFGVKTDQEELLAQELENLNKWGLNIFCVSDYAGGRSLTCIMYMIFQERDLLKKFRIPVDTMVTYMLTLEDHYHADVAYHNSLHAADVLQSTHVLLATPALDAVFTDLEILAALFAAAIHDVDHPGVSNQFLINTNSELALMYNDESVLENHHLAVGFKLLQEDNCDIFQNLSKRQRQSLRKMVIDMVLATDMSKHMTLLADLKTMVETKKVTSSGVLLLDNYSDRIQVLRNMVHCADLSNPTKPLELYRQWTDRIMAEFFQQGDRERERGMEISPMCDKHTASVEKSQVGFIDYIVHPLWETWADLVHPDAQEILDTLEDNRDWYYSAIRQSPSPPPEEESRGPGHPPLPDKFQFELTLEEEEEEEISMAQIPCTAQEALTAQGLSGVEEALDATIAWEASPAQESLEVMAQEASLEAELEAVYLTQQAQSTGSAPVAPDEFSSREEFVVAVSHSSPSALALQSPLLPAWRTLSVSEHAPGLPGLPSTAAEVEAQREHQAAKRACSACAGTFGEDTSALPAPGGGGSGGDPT

pIC50 [1] | pIC50 [2] | pIC50 [3] | pIC50 [4] | pIC50 [5] | pIC50 (Homo sapiens) | SMILES | pIC50 (PBMC [6]) | pIC50 (PBMC [7]) | pIC50 (PBMC [8]) | Activation (Rattus norvegicus [9]) | pIC50 (PBMC [10]) | Activation (Rattus norvegicus [11])
< 4 | 8.1 | 8.6 | 8.2 | 8.1 | – | COc1cccc(COc2cccc(N3CC(c4ccc(OC)c(OC5CCCC5)c4)CC3=O)c2)c1 (stereo unspecified) | – | – | – | – | – | –
– | – | – | – | – | 6.1 | COc1ccc(C2CNC(=O)C2)cc1OC1CCCC1 (stereo unspecified) [ROLIPRAM] | 6.3 | 7.1 | 5.6 | – | – | –
< 4 | 8.8 | 8.3 | 8.6 | 8.3 | 7.3 | COc1cccc(COc2cc(C(=O)NN(C)C)cc(N3CC(c4ccc(OC)c(OC5CCCC5)c4)CC3=O)c2)c1 (stereo unspecified) | 7.6 | 7.7 | 7.8 | 10 mU ml-1 | 7.3 | –
< 4 | 7.9 | 7.7 | 7.9 | 7.5 | 6.6 | COc1cccc(COc2cc(C(=O)O)cc(N3CC(c4ccc(OC)c(OC5CCCC5)c4)CC3=O)c2)c1 (stereo unspecified) | 6.6 | 7.4 | 7.5 | – | 7.2 | 5 mU ml-1
